From patent US20250275540A1, “USE OF PROTOPORPHYRINOGEN OXIDASE” (BEIJING DABEINONG BIOTECHNOLOGY CO., LTD., priority 2022, published 2025)

Test system: transgenic soybean plants
Experiment: Detection of the herbicide tolerance of the transgenic soybean plants
Type: in vivo
Conditions: for The grade of pesticide damage/plant: 0 / The grade of pesticide damage/plant: 1 / The grade of pesticide damage/plant: 2 / The grade of pesticide damage/plant: 3: 7 DAT
[1] = genotype Control vector, 360 g ai/ha
[2] = genotype Control vector, 720 g ai/ha
[3] = genotype PPO-AP-01, 360 g ai/ha
[4] = genotype PPO-AP-01, 720 g ai/ha
[5] = genotype PPO-EC-01, 360 g ai/ha
[6] = genotype PPO-EC-01, 720 g ai/ha

**Q.** What does the source list for `CCOc1cc(Oc2ccc(C(F)(F)F)cc2Cl)ccc1[N+](=O)[O-]` [oxyfluorfen, 2-chloro-1-(3-ethoxy-4-nitrophenoxy)-4-trifluoromethylbenzene]?
**A.** The grade of pesticide damage/plant: 0 (genotype CK, 360 g ai/ha): 0 plant; The grade of pesticide damage/plant: 1 (genotype CK, 360 g ai/ha): 0 plant; The grade of pesticide damage/plant: 2 (genotype CK, 360 g ai/ha): 0 plant; The grade of pesticide damage/plant: 3 (genotype CK, 360 g ai/ha): 16 plant; The grade of pesticide damage/plant: 0 (genotype CK, 720 g ai/ha): 0 plant; The grade of pesticide damage/plant: 1 (genotype CK, 720 g ai/ha): 0 plant; The grade of pesticide damage/plant: 2 (genotype CK, 720 g ai/ha): 0 plant; The grade of pesticide damage/plant: 3 (genotype CK, 720 g ai/ha): 16 plant; The grade of pesticide damage/plant: 0 [1]: 0 plant; The grade of pesticide damage/plant: 1 [1]: 0 plant; The grade of pesticide damage/plant: 2 [1]: 0 plant; The grade of pesticide damage/plant: 3 [1]: 16 plant; The grade of pesticide damage/plant: 0 [2]: 0 plant; The grade of pesticide damage/plant: 1 [2]: 0 plant; The grade of pesticide damage/plant: 2 [2]: 0 plant; The grade of pesticide damage/plant: 3 [2]: 16 plant; The grade of pesticide damage/plant: 0 [3]: 0 plant; The grade of pesticide damage/plant: 1 [3]: 0 plant; The grade of pesticide damage/plant: 2 [3]: 8 plant; The grade of pesticide damage/plant: 3 [3]: 8 plant; The grade of pesticide damage/plant: 0 [4]: 0 plant; The grade of pesticide damage/plant: 1 [4]: 0 plant; The grade of pesticide damage/plant: 2 [4]: 0 plant; The grade of pesticide damage/plant: 3 [4]: 16 plant; tolerance to the herbicide (in words) (genotype PPO-AP-01, four-fold field concentration): no tolerance; share of the plants that exhibited no tolerance (genotype PPO-AP-01, two-fold field concentration): 50%; The grade of pesticide damage/plant: 0 [5]: 16 plant; The grade of pesticide damage/plant: 1 [5]: 0 plant; The grade of pesticide damage/plant: 2 [5]: 0 plant; The grade of pesticide damage/plant: 3 [5]: 0 plant; The grade of pesticide damage/plant: 0 [6]: 13 plant; The grade of pesticide damage/plant: 1 [6]: 3 plant; The grade of pesticide damage/plant: 2 [6]: 0 plant; The grade of pesticide damage/plant: 3 [6]: 0 plant; The grade of pesticide damage/plant: 0 (genotype PPOA-01, 360 g ai/ha): 16 plant; The grade of pesticide damage/plant: 1 (genotype PPOA-01, 360 g ai/ha): 0 plant; The grade of pesticide damage/plant: 2 (genotype PPOA-01, 360 g ai/ha): 0 plant; The grade of pesticide damage/plant: 3 (genotype PPOA-01, 360 g ai/ha): 0 plant; The grade of pesticide damage/plant: 0 (genotype PPOA-01, 720 g ai/ha): 15 plant; The grade of pesticide damage/plant: 1 (genotype PPOA-01, 720 g ai/ha): 1 plant; The grade of pesticide damage/plant: 2 (genotype PPOA-01, 720 g ai/ha): 0 plant; The grade of pesticide damage/plant: 3 (genotype PPOA-01, 720 g ai/ha): 0 plant; The grade of pesticide damage/plant: 0 (genotype PPOB-01, 360 g ai/ha): 16 plant; The grade of pesticide damage/plant: 1 (genotype PPOB-01, 360 g ai/ha): 0 plant; The grade of pesticide damage/plant: 2 (genotype PPOB-01, 360 g ai/ha): 0 plant; The grade of pesticide damage/plant: 3 (genotype PPOB-01, 360 g ai/ha): 0 plant; The grade of pesticide damage/plant: 0 (genotype PPOB-01, 720 g ai/ha): 16 plant; The grade of pesticide damage/plant: 1 (genotype PPOB-01, 720 g ai/ha): 0 plant; The grade of pesticide damage/plant: 2 (genotype PPOB-01, 720 g ai/ha): 0 plant; The grade of pesticide damage/plant: 3 (genotype PPOB-01, 720 g ai/ha): 0 plant; The grade of pesticide damage/plant: 0 (genotype PPOC-01, 360 g ai/ha): 16 plant; The grade of pesticide damage/plant: 1 (genotype PPOC-01, 360 g ai/ha): 0 plant; The grade of pesticide damage/plant: 2 (genotype PPOC-01, 360 g ai/ha): 0 plant; The grade of pesticide damage/plant: 3 (genotype PPOC-01, 360 g ai/ha): 0 plant; The grade of pesticide damage/plant: 0 (genotype PPOC-01, 720 g ai/ha): 16 plant; The grade of pesticide damage/plant: 1 (genotype PPOC-01, 720 g ai/ha): 0 plant; The grade of pesticide damage/plant: 2 (genotype PPOC-01, 720 g ai/ha): 0 plant; The grade of pesticide damage/plant: 3 (genotype PPOC-01, 720 g ai/ha): 0 plant; The grade of pesticide damage/plant: 0 (genotype PPOD-01, 360 g ai/ha): 16 plant; The grade of pesticide damage/plant: 1 (genotype PPOD-01, 360 g ai/ha): 0 plant; The grade of pesticide damage/plant: 2 (genotype PPOD-01, 360 g ai/ha): 0 plant; The grade of pesticide damage/plant: 3 (genotype PPOD-01, 360 g ai/ha): 0 plant; The grade of pesticide damage/plant: 0 (genotype PPOD-01, 720 g ai/ha): 16 plant; The grade of pesticide damage/plant: 1 (genotype PPOD-01, 720 g ai/ha): 0 plant; The grade of pesticide damage/plant: 2 (genotype PPOD-01, 720 g ai/ha): 0 plant; The grade of pesticide damage/plant: 3 (genotype PPOD-01, 720 g ai/ha): 0 plant; The grade of pesticide damage/plant: 0 (genotype PPOE-01, 360 g ai/ha): 16 plant; The grade of pesticide damage/plant: 1 (genotype PPOE-01, 360 g ai/ha): 0 plant; The grade of pesticide damage/plant: 2 (genotype PPOE-01, 360 g ai/ha): 0 plant; The grade of pesticide damage/plant: 3 (genotype PPOE-01, 360 g ai/ha): 0 plant; The grade of pesticide damage/plant: 0 (genotype PPOE-01, 720 g ai/ha): 14 plant; The grade of pesticide damage/plant: 1 (genotype PPOE-01, 720 g ai/ha): 2 plant; The grade of pesticide damage/plant: 2 (genotype PPOE-01, 720 g ai/ha): 0 plant; The grade of pesticide damage/plant: 3 (genotype PPOE-01, 720 g ai/ha): 0 plant; The grade of pesticide damage/plant: 0 (genotype PPOF-01, 360 g ai/ha): 16 plant; The grade of pesticide damage/plant: 1 (genotype PPOF-01, 360 g ai/ha): 0 plant; The grade of pesticide damage/plant: 2 (genotype PPOF-01, 360 g ai/ha): 0 plant; The grade of pesticide damage/plant: 3 (genotype PPOF-01, 360 g ai/ha): 0 plant; The grade of pesticide damage/plant: 0 (genotype PPOF-01, 720 g ai/ha): 16 plant; The grade of pesticide damage/plant: 1 (genotype PPOF-01, 720 g ai/ha): 0 plant; The grade of pesticide damage/plant: 2 (genotype PPOF-01, 720 g ai/ha): 0 plant; The grade of pesticide damage/plant: 3 (genotype PPOF-01, 720 g ai/ha): 0 plant; tolerance to the herbicide (in words) (genotypes PPOA-01 to PPOF-01 and PPO-EC-01, four-fold field concentration): high-resistant tolerance; tolerance to the herbicide (in words) (genotypes PPOA-01 to PPOF-01 and PPO-EC-01, two-fold field concentration): high-resistant tolerance
